Experiments:
Type in all cases: in vivo
ddY-type mice = test: Analgesic efficacy test (1): acetic acid writhing test (nociceptive pain model animal); conditions: Mus musculus, 25 min, writhing number, male ddY mice, acetic acid i.p. 25 min after administration, mean ± standard error, read-out: Percent Suppression (%); for inhibition in vivo at 10 mg/kg: oral single dose 10 mg/kg; for inhibition in vivo at 100 mg/kg: oral single dose 100 mg/kg
Text: A compound of the present invention was orally administered to mice, to carry out an analgesic efficacy test according to acetic acid writhing test (nociceptive pain model animal). As an experimental animal, 4-week old male ddY-type mice were previously bred, and thereafter 8 mice per one group were used in the experiment. A solution or suspension prepared by dissolving or suspending a compound of the present invention in a 0.5% (w/v) aqueous CMC-Na solution was orally administered as a test substance in a single dose. While, to a control group, a 0.5% (w/v) aqueous CMC-Na solution was administered in the same manner. After 25 minutes from administration, the mice were intraperitoneally administered with a 0.7% (v/v) acetic acid/physiological saline at the dose of 10 mL/kg. From 5 minutes thereafter, writhing number in a 10-minute period was counted, and a suppressive rate for each individual (mean±standard error) was calculated by the following formula: […]
In the test for significance difference, Baltlett's test was carried out in the comparison between multiple groups of the group administered with test substance with the control group. In the case of homoscedasticity, Dunnett's multiple comparison test of parametrics, and in the case of heteroscedasticity, Dunnett's multiple comparison test of non-parametrics were used. In addition, in the test of dose dependency, Jockheere-Terpstra's test was used. In all cases, significance difference was considered to be found at P<0.05.

Chung model rat = test: Analgesic efficacy test (2): Chung model rat, neuropathic pain model (allodynia, von Frey filament); conditions: Table 13, Wistar male rats, L5 spinal nerve ligation, mean ± standard error
Method: An analgesic efficacy test was conducted using a Chung model rat, a neuropathic pain model. Using Wistar male rats after passing 9-week old as an experimental animal, a model rat was prepared in accordance with the method of Kim and Chung (Pain, 50, 355-363, 1992). Specifically, left L5 spinal nerves of rats were exposed under anesthetization with pentobarbital (35 mg/kg, intraperitoneal administration), and firmly ligated with 5-0 silk yarn at L5 dorsal root ganglion peripheral side. The animals were placed in a transparent acrylic cage of which bottom was wire netted The measurement of allodynia was carried out using von Frey filament (manufactured by North Coast Medical Inc.) and a 50% reaction threshold was calculated according to an up-down method, in accordance with methods of Chaplan et al. (J. Neurosci. Method, 53, 55-63, 1994) and Lee et al. (J. Neurophysiol., 81, 2226-2233, 1999). The 50% reaction thresholds were measured twice before injury of the spinal nerve, and those animals of which thresholds were outside the standard were removed from the operation of spinal nerve injury. On or after 14 days from the spinal nerve injury, a 50% reaction threshold was measured, and those showing thresholds of 1 g or more and less than 4 g were used as experimental animal. The group was constituted by 7 rats per group so that an average of a 50% reaction threshold for each group would be nearly even.
A solution or suspension prepared by dissolving or suspending a compound of the present invention in a 0.5% (w/v) aqueous CMC-Na solution was orally administered as a test substance in a single dose while, a 0.5% (w/v) aqueous CMC-Na solution was administered in the same manner to the control group for nerve injury. After 30 minutes from the administration, the measurement of allodynia was carried out, and a 50% reaction threshold (mean±standard error) was calculated. In the test for significance difference, Baltlett's test was carried out in the comparison between multiple groups of the group administered with test substance with the control group for nerve injury. In the case of homoscedasticity, Dunnett's multiple comparison test of parametrics, and in the case of heteroscedasticity, Dunnett's multiple comparison test of non-parametrics were used. In all cases, significance difference was considered to be found at P<0.05.

[1] = Test of blood kinetics in the rats; conditions: rat, plasma, 2 mg/kg, fasted Wistar male rats, oral single dose of mixed solution of five compounds, each compound 2 mg/5 mL/kg, n=5, LC-MS; for AUC(0-inf): read-out: AUC0-∞ (area under the curve for concentration in blood, time 0 to infinite hours); for Cmax: read-out: Cmax (maximum concentration in plasma)
Method: Ten milligrams of a compound of the present invention was properly converted to a sodium salt with the same amount of sodium hydroxide, where necessary, and each was dissolved in 5 mL of water. Five compounds each among these aqueous solutions of the compounds of the present inventions were mixed, to prepare a mixed solution containing 0.4 mg/mL each of each compound. Six-week old Wistar SPF male rats that were fasted were orally administered with the mixed solution in a single dose using a gavage tube (each compound 2 mg/5 mL/kg, n=5). At time points of 0.25, 0.5, 1, 2, 4, and 8 hours after the administration, about 150 μL of blood was collected using a heparin-added capillary tube from veins of rat tails. The capillary tubes were centrifuged to collect the plasma. The plasma sample was deprotenized and the supernatant was diluted to prepare each of measurement sample solutions. The concentration of the compound of the present invention in each of measurement sample solutions was quantified using LC-MS, and Cmax (maximum concentration in plasma) and AUC (area under the curve for concentration in blood, time 0 to infinite (∞) hours) of the compounds of the present invention were calculated.

AUC(0-inf) [1] [ng·h/mL] | Cmax [1] [ng/mL] | Compound | inhibition in vivo at 10 mg/kg (ddY-type mice) [%] | 50% Reaction Threshold (g), Group Administered with Test Substance, 30 Min. After Administration (Chung model rat; oral single dose 10 mg/kg) [g] | inhibition in vivo at 100 mg/kg (ddY-type mice) [%] | 50% Reaction Threshold (g), Group Administered with Test Substance, 30 Min. After Administration (Chung model rat; oral single dose 1 mg/kg) [g]
33900 | 4800 | O=C(C=Cc1ccc(F)cc1F)N[C@@H](Cc1c[nH]c2ccccc12)C(=O)O [Compound 14, N^α-[3-(2,4-Difluorophenyl)acryloyl]-L-tryptophan] | 43.2 ± 10.9 | 9.38 ± 1.68 |  | 
8500 | 2800 | C=CC(=O)N[C@@H](Cc1ccc(OC)cc1)C(=O)O [Compound 38, N-Acryloyl-O^4-methyl-L-tyrosine] |  |  | 52 ± 8.2 | 5.44 ± 0.75
 |  | N#Cc1ccc(C=CC(=O)N[C@@H](Cc2c[nH]c3ccccc23)C(=O)O)cc1 [Compound 19, N^α-[3-(4-Cyanophenyl)acryloyl]-L-tryptophan] |  |  | 52.2 ± 6.1 | 5.16 ± 0.41
 |  | O=C(C=Cc1ccccc1C(F)(F)F)N[C@@H](Cc1c[nH]c2ccccc12)C(=O)O [Compound 10, N^α-[3-(2-Trifluoromethylphenyl)acryloyl]-L-tryptophan] | 41.6 ± 9.6 | 6.73 ± 1.26 |  | 
 |  | CSCC[C@H](NC(=O)C=Cc1ccccc1F)C(=O)O [Compound 67, N-[3-(2-Fluorophenyl)acryloyl]-L-methionine] | 43.5 ± 6.9 |  |  | 4.94 ± 0.61
 |  | O=C(C=Cc1ccc(Oc2ccccc2)cc1)N[C@@H](Cc1c[nH]c2ccccc12)C(=O)O [Compound 18, N^α-[3-(4-Phenoxyphenyl)acryloyl]-L-tryptophan] | 56.5 ± 4.2 | 11.73 ± 1.60 |  | 
19400 | 2800 | O=C(C=Cc1cc(F)ccc1F)N[C@@H](Cc1c[nH]c2ccccc12)C(=O)O [Compound 15, N^α-[3-(2,5-Difluorophenyl)acryloyl]-L-tryptophan] |  | 9.12 ± 1.55 | 61.3 ± 9.9 | 
 |  | N#Cc1ccccc1C=CC(=O)N[C@@H](Cc1c[nH]c2ccccc12)C(=O)O [Compound 9, N^α-[3-(2-Cyanophenyl)acryloyl]-L-tryptophan] | 41 ± 12.9 |  |  | 6.28 ± 0.42
21900 | 5000 | O=C(C=Cc1ccccc1)N[C@@H](Cc1c[nH]c2ccccc12)C(=O)O [Compound 8, N^α-(3-Phenylacryloyl)-L-tryptophan] | 67.7 ± 10.3 | 8.39 ± 1.30 |  | 
 |  | NC(=O)[C@H](Cc1c[nH]c2ccccc12)NC(=O)C=Cc1ccccc1F [Compound 23, N^α-[3-(2-Fluorophenyl)acryloyl]-L-tryptophanamide] |  | 9.37 ± 1.56 | 48.2 ± 11.5 | 
238000 | 50600 | Cn1cc(C[C@H](NC(=O)C=Cc2ccccc2)C(=O)O)c2ccccc21 [Compound 29, 1-Methyl-N^α-(3-phenylacryloyl)-L-tryptophan] | 56.8 ± 6.8 | 6.45 ± 1.39 |  | 
10200 | 3000 | O=C(N[C@@H](Cc1c[nH]c2ccccc12)C(=O)O)c1cc2ccccc2o1 [Compound 20, N^α-(Benzofuran-2-carbonyl)-L-tryptophan] |  |  | 41.6 ± 6 | 6.13 ± 0.75
 |  | O=C(N[C@@H](Cc1c[nH]c2ccccc12)C(=O)O)c1cc2ccccc2oc1=O [Compound 21, N^α-(Coumarin-3-carbonyl)-L-tryptophan] | 38.3 ± 6.5 |  |  | 3.93 ± 0.16
14600 | 2300 | O=C(C=Cc1ccc(F)cc1)N[C@@H](Cc1c[nH]c2ccccc12)C(=O)O [Compound 5, N^α-[3-(4-Fluorophenyl)acryloyl]-L-tryptophan] | 51.3 ± 10.9 | 6.87 ± 1.28 |  | 
 |  | N=C(N)NCCC[C@H](NC(=O)C=Cc1ccccc1F)C(=O)O [Compound 64, N^α-[3-(2-Fluorophenyl)acryloyl]-L-arginine] | 50.6 ± 7.5 |  |  | 6.21 ± 1.04
 |  | COc1ccc(C[C@H](NC(=O)C=Cc2ccccc2O)C(=O)O)cc1 [Compound 39, N-[3-(2-Hydroxyphenyl)acryloyl]-O^4-methyl-L-tyrosine] |  | 11.44 ± 1.70 |  | 
28700 | 4300 | O=C(C=Cc1cccc(F)c1)N[C@@H](Cc1c[nH]c2ccccc12)C(=O)O [Compound 4, N^α-[3-(3-Fluorophenyl)acryloyl]-L-tryptophan] |  | 10.73 ± 1.59 | 42.4 ± 8.3 | 
11400 | 4000 | N#CC(=Cc1ccccc1F)C(=O)N[C@@H](Cc1c[nH]c2ccccc12)C(=O)O [Compound 22, N^α-[2-Cyano-3-(2-fluorophenyl)acryloyl]-L-tryptophan] | 39.9 ± 8.6 | 11.34 ± 1.52 |  | 
46300 | 7400 | O=C(C=Cc1c(F)cccc1F)N[C@@H](Cc1c[nH]c2ccccc12)C(=O)O [Compound 13, N^α-[3-(2,6-Difluorophenyl)acryloyl]-L-tryptophan] | 52.9 ± 7.7 | 9.94 ± 1.56 |  | 
 |  | O=C(C=Cc1ccccc1O)N[C@@H](Cc1c[nH]c2ccccc12)C(=O)O [Compound 2, N^α-[3-(2-Hydroxyphenyl)acryloyl]-L-tryptophan] | 41.8 ± 4.1 | 11.64 ± 1.81 |  | 
 |  | O=C(C=Cc1cc(C(F)(F)F)cc(C(F)(F)F)c1)N[C@@H](Cc1c[nH]c2ccccc12)C(=O)O [Compound 16, N^α-{3-[3,5-Bis(trifluoromethyl)phenyl]acryloyl}-L-tryptophan] |  | 8.38 ± 1.07 | 69 ± 4.9 | 
 |  | N#Cc1cccc(C=CC(=O)N[C@@H](Cc2c[nH]c3ccccc23)C(=O)O)c1 [Compound 17, N^α-[3-(3-Cyanophenyl)acryloyl]-L-tryptophan] | 54.7 ± 6.8 | 12.99 ± 1.53 |  | 

Source: patent publication US9150510B2, “Amino acid derivative” (NIPPON ZOKI PHARMACEUTICAL CO., LTD., priority 2008, dated 2015)
